According to US6376169B1, “Method for diagnosing a vascular condition” (Queens University at Kingston, priority 1998, dated 2002):
“Also recorded” adds a separate entry of the source.

How the values were obtained:
HTR-8/SVneo cells = experiment: In vitro invasion of HTR-8/SVneo cells through Matrigel; type: cell-based, human; conditions: for Invasion Index (%) ± SE: standard = 100; for increase in invasion: 20% oxygen, 100 μM cobalt chloride or 30 mM Tiron
Procedure: In vitro invasion assay. An assay which employs reconstituted basement membrane (Matrigel; Collaborative Biomedical Products, Bedford, Mass.) as the substrate for invasion was used to determine the effect of hypoxia on the invasiveness of tumor cells. Costar Transwell inserts (6.5 mm diameter polycarbonate membrane, 8 μm pore; Corning Costar Corp., Cambridge, Mass.) were coated with 100 μl of a 1 mg/ml solution of Matrigel diluted in cold serum-free culture medium, placed in the wells of a 24-well tissue culture plate and allowed to air-dry for 12 h in a laminar flow cabinet. After reconstituting the Matrigel by incubating for 1 h with 100 μl of serum-free medium, 5.0×10^4 cells in 100 μl aliquots of serum-containing medium were added to the Transwells. […] Cells which invaded through the Matrigel and the pores of the underlying membrane were fixed for 10 min in Carnoy's fixative (25% acetic acid, 75% methanol) and stained for 3 h in 1% toluidine blue, 1% sodium borate. Following several washes in tap water, the membranes were removed with a small scalpel blade, placed on a microscope slide and coverslipped. The invasion index' was then determined by counting, under a microscope, the total number of stained cells in the underside of the polycarbonate membranes.
Alternatively, cells (e.g., HTR-8/SVneo, MDA-MB-231) were labeled by incubation for 24 h in the presence of 10 μCi/ml [^3H]-thymidine. The cells were then harvested, adjusted to a concentration of 5.0×10^5/ml, and 100 μl aliquots added in triplicate to the upper wells of the invasion chambers. After a 24-h incubation, cells in the upper and lower compartments of the chambers were harvested. The invasion index, reflecting the percentage of added cells which had invaded the Matrigel was determined by measurement of the radioactivity in the upper and lower compartments, as well as in the membrane.

MDA-MB-231 cells = experiment: In vitro invasion of MDA-MB-231 cells through Matrigel; type: cell-based, human; conditions: 1% O2 + 30% CO
Procedure: In vitro invasion assay. An assay which employs reconstituted basement membrane (Matrigel; Collaborative Biomedical Products, Bedford, Mass.) as the substrate for invasion was used to determine the effect of hypoxia on the invasiveness of tumor cells. Costar Transwell inserts (6.5 mm diameter polycarbonate membrane, 8 μm pore; Corning Costar Corp., Cambridge, Mass.) were coated with 100 μl of a 1 mg/ml solution of Matrigel diluted in cold serum-free culture medium, placed in the wells of a 24-well tissue culture plate and allowed to air-dry for 12 h in a laminar flow cabinet. After reconstituting the Matrigel by incubating for 1 h with 100 μl of serum-free medium, 5.0×10^4 cells in 100 μl aliquots of serum-containing medium were added to the Transwells. Following a 24-h incubation under either 20% or 1% O2 in the absence or presence of 10 μg/ml blocking anti-uPAR antibody (3936), or under 1% O2+30% CO (to assess the role of a heme protein on invasion), cells on the surface of the Matrigel-coated polycarbonate membrane (non-invading cells) were removed by scraping with a cotton swab. […] The invasion index' was then determined by counting, under a microscope, the total number of stained cells in the underside of the polycarbonate membranes.

cell-associated uPA = experiment: Zymography of cell-associated plasminogen activators in MDA-MB-231 cell extracts; type: cell-based, human
Procedure: To assess the levels of plasminogen activators associated with cells cultured for 24 h under 20% and 1% O2, extracts were prepared by disrupting trypsinized cell pellets with 2% SDS in Tris-buffered saline (TBS; 10 mM Tris, 0.15 M NaCl, pH 7.5) using a Polytron homogenizer (Brinkmann Instruments, Rexdale, ON, Canada). The homogenates were centrifuged at 15,000 g for 15 min to remove insoluble materials and 100 μg of extracted protein were analyzed by casein-plasminogen gel zymography as described above.

uPAR [1] = experiment: Binding of [125I]-prourokinase to HTR-8/SVneo cells (uPAR expression); type: cell-based, human; conditions: for Kd: Kd of [125I]-prourokinase on cells cultured with compound, read-out: Kd (nM) ± SEM; for increase in the expression of uPAR: flow cytometric and radioligand binding studies; for Bmax (sites/cell) ± SEM: [125I]-prourokinase binding to cells cultured with compound
Procedure: Determination of uPAR expression by urokinase binding analysis. Measurement of uPAR expression by ligand binding analysis was performed using [^125I]-prourokinase as the ligand, as described (Zini J M, et al., Blood 79:2917 (1992)). Prourokinase was radiolabeled with ^125I, using Iodobeads, to a specific radioactivity of at least 10^6 cpm/μg. Cells were then chilled to 4° C., washed with cold PBS containing 1% BSA, and incubated for 2 h with increasing concentrations of[^125I]-prourokinase in the absence (to determine total binding) or presence (to determine non-specific binding) of a 100-fold molar excess of unlabeled prourokinase. Specific binding was defined as the difference between total and non-specific binding, and analyzed by non-linear curve fitting methods (least squares method) using the Kaliedograph software program (Synergy Software, Reading, Pa.).

uPAR [2] = experiment: uPAR protein and mRNA in cancer cells (Example 1); type: cell-based; conditions: 24 hours, standard conditions; 100 μM cobalt chloride; Tiron

Compound | inhibition of hypoxia-stimulated invasion (HTR-8/SVneo cells; 1% oxygen + 20% carbon monoxide) [%] | Invasion Index (%) ± SE (HTR-8/SVneo cells; Hypoxia (1% O2) + 20% CO) [%] | effect on hypoxia-mediated increase in invasiveness (MDA-MB-231 cells) | effect on hypoxic increase in cell-associated uPA (cell-associated uPA; 1% O2 + 30% CO, listed as CO) | Kd (uPAR [1]) [nM] | increase in the expression of uPAR (uPAR [1]; Tiron) [fold] | Bmax (sites/cell) ± SEM (uPAR [1]) | increase in invasion (HTR-8/SVneo cells) [%] | Invasion Index (%) ± SE (HTR-8/SVneo cells; Standard (20% O2) + compound) [%] | increase in the expression of uPAR (uPAR [1]; cobalt chloride) [%] | cell-associated uPA levels (cell-associated uPA; culture with cobalt chloride) | uPAR protein and mRNA levels (uPAR [2])
[C-]#[O+] [carbon monoxide] | 87 | 104.0 ± 8.5 | completely abrogated | abrogated the hypoxic increase in cell-associated uPA; also recorded: prevented the effect of hypoxia on cell-associated uPA increases | – | – | – | – | – | – | – | –
O=S(=O)([O-])c1cc(O)c(O)c(S(=O)(=O)[O-])c1.[Na+].[Na+] [Tiron, sodium 4,5-dihydroxybenzene-1,3-disulfonate] | – | – | – | – | 8.08 ± 1.11 | 3 | 623,213 ± 102,360 sites/cell | 29.3±12.7 | 129.3 ± 12.7 | – | – | –
[Cl][Co][Cl] [cobalt chloride] | – | – | – | – | 3.58 ± 0.69 | – | 285,711 ± 38,324 sites/cell | 24.6±8.4 | 124.6 ± 8.4 | 28 | increased cell-associated uPA | elevated uPAR protein and mRNA levels
